According to ChEMBL document CHEMBL4311946, “Mechanistic Insight on the Mode of Action of Colletoic Acid” (J Med Chem, 2019):
Active and inactive are the calls of the source. The calls are words filed in the database; no cut-off is given here.

Experiments:
3T3-L1 [1] = assay: Cytotoxicity against mouse 3T3L1 cells up to 1 mM measured after 72 hrs under induction medium containing dehydrocorticosterone/cortisone by celltiter-glo luminescent cell viability assay; assay type: cell-based; conditions: 3t3-l1, 72 h
Homo sapiens [2] = assay: Anti-adipogenic activity in human subcutaneous preadipocytes assessed as reduction in pre-adipocyte differentiation into matured adipocytes at 50 uM incubated for 48 hrs under induction medium containing hydrocortisone hemi-succinate prior to compound washout followed by shifting to differentiation medium containing compound supplemented with fresh medium every 48 to 72 hrs for 9 to 14 days by oil red O staining-based microscopic analysis; assay type: functional, cell-based
Homo sapiens [3] = assay: Anti-adipogenic activity in human subcutaneous preadipocytes assessed as decrease in lipid accumulation at 50 uM measured after 3 days under induction medium containing hydrocortisone hemi-succinate by oil red O staining-based microscopic analysis; assay type: functional, cell-based
3T3-L1 [4] = assay: Cell cycle arrest in mouse 3T3L1 preadipocytes up to 1 mM measured after 24 hrs under non-differentiating medium by propidium iodide staining-based flow cytometry; assay type: ADME; conditions: 3t3-l1, 24 h
3T3-L1 [5] = assay: (§1) Anti-adipogenic activity in mouse 3T3L1 preadipocytes assessed as decrease in lipid accumulation at 50 uM incubated for 48 hrs under induction medium containing dehydrocorticosterone/cortisone followed by shifting to differentiation medium and measured after 7 days by Oil red O staining-based microscopic analysis; assay type: functional, cell-based
Fibroblast [6] = assay: Effect on nascent protein synthesis in mouse fibroblasts assessed as reduction in O-Propargyl-puromycin incorporation at 50 uM by fluorescent azide/pico green dye-based confocal microscopic analysis; assay type: ADME, cell-based
3T3-L1 [7] = assay: as §1, with “10” for “50”; assay type: functional, cell-based
[8] = target: 11-beta-hydroxysteroid dehydrogenase 1 (Homo sapiens, UniProt P28845, C272S); assay: Inhibition of N-terminal MKHQHQHQHQHQHQQPL-tagged 11beta-HSD1 C272S mutant (unknown origin) expressed in Escherichia coli BL21 (DE3) using cortisol as substrate measured for 1 hr in presence of NADPH by fluorescence assay
3T3-L1 [9] = assay: Anti-adipogenic activity in mouse 3T3L1 preadipocytes assessed as reduction in C/EBPbeta mRNA expression at 50 to 100 uM measured daily for 2 days under induction media containing dehydrocorticosterone/cortisone by SYBR green dye-based qRT-PCR analysis; assay type: functional, cell-based
Homo sapiens [10] = organism: Homo sapiens; assay: Anti-adipogenic activity in human visceral preadipocytes assessed as decrease in lipid accumulation at 50 uM measured after 3 days under induction medium containing hydrocortisone hemi-succinate by oil red O staining-based microscopic analysis; assay type: functional, cell-based
[11] = target: T1, Glucocorticoid receptor (Homo sapiens) (UniProt P04150); assay: Antagonist activity at GR in human MDA-MB-231 cells at 50 uM measured after 4 hrs in presence of dexamethasone by luciferase reporter gene assay; assay type: cell-based
T1 sequence (whole entry): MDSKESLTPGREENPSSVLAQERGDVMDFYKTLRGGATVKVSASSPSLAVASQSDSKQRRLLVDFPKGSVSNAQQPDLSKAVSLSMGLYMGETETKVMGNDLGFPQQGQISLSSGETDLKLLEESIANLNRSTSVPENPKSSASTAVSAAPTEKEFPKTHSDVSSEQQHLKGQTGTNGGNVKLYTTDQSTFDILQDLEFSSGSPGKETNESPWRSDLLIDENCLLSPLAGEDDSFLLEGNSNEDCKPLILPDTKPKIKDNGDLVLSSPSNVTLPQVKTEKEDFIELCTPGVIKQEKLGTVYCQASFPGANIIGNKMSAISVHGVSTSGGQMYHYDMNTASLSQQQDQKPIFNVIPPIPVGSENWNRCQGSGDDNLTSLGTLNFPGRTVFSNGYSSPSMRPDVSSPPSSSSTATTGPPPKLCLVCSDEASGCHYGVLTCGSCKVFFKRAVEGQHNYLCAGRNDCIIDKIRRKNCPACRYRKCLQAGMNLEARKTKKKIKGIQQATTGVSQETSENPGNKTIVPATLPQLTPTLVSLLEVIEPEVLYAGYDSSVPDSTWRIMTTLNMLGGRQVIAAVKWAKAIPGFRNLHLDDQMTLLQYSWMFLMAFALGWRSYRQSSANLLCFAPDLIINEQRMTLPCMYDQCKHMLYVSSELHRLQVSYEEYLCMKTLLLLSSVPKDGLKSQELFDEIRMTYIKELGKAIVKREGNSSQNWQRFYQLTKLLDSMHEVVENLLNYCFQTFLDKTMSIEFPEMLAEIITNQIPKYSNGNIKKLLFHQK

3T3-L1 [12] = assay: Anti-adipogenic activity in differentiated mouse 3T3L1 cells assessed as reduction in PGC1alpha mRNA expression at 50 to 100 uM measured after 2 to 7 days by SYBR green dye-based qRT-PCR analysis relative to control; assay type: functional
Fibroblast [13] = assay: Effect on nascent protein synthesis in mouse fibroblasts assessed as reduction in O-Propargyl-puromycin incorporation at 50 uM measured after 2 hrs by fluorescent azide/pico green dye-based confocal microscopic analysis; assay type: ADME, cell-based
[14] = target: T2, 11-beta-hydroxysteroid dehydrogenase type 2 (Homo sapiens, UniProt P80365); assay: Inhibition of 11beta-HSD2 (unknown origin) expressed in HEK293 cells using cortisone as substrate measured after 2 hrs in presence of NAD+ by HTRF assay; assay type: ADME, cell-based
T2 sequence (P80365 whole entry): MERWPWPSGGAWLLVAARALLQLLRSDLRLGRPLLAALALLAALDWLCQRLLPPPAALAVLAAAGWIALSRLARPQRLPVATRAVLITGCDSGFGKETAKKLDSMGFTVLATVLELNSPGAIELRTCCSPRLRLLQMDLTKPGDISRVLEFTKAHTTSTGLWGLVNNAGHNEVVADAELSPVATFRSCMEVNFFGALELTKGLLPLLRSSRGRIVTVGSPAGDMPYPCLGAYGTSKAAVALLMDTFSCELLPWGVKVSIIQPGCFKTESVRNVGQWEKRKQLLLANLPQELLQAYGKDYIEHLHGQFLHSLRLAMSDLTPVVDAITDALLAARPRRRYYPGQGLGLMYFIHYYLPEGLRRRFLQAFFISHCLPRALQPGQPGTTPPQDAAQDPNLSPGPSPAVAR

3T3-L1 [15] = assay: Anti-adipogenic activity in differentiated mouse 3T3L1 cells assessed as reduction in mitochondrial mass at 50 uM measured on day 7 by mitotracker deep red/hoechst 33342 staining-based confocal imaging analysis; assay type: functional, cell-based
[16] = Stability in mouse plasma; assay type: ADME, cell-free
3T3-L1 [17] = assay: Anti-adipogenic activity in mouse 3T3L1 preadipocytes assessed as reduction in S6K1 mRNA expression at 50 to 100 uM measured daily for 2 days under induction media containing dehydrocorticosterone/cortisone by SYBR green dye-based qRT-PCR analysis; assay type: functional, cell-based
3T3-L1 [18] = assay: Anti-adipogenic activity in differentiated mouse 3T3L1 cells assessed as reduction in 11beta-HSD1 mRNA expression at 50 to 100 uM measured after 2 to 7 days by SYBR green dye-based qRT-PCR analysis; assay type: functional, cell-based

Sequence of 11-beta-hydroxysteroid dehydrogenase 1 (P28845 whole entry C272S): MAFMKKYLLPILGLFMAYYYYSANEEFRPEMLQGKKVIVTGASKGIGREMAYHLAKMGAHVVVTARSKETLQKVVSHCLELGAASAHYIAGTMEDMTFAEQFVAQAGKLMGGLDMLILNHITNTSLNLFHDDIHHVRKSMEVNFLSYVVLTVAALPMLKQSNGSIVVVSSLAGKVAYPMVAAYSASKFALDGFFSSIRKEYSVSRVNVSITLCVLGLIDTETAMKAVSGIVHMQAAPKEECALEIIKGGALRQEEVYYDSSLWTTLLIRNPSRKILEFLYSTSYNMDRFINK

## CC1=CC[C@@]2(C[C@@H]1O)[C@@H](C(=O)O)CC[C@H]2C(C)C
3T3-L1 [1]
  Activity: Non-Toxic
Homo sapiens [2]
  Activity: Active
Homo sapiens [3]
  Activity: inactive
3T3-L1 [4]
  Activity: Non-Toxic
3T3-L1 [5]
  Activity: Active
Fibroblast [6]
  Activity: Non-Toxic
3T3-L1 [7]
  Activity: Active
[8]
  IC50: 4.1 µM
3T3-L1 [9]
  Activity: Active
Homo sapiens [10]
  Activity: inactive
[11]
  Activity: inactive
3T3-L1 [12]
  fold change (FC): <10
Fibroblast [13]
  Activity: Non-Toxic
[14]
  IC50: > 500 µM
3T3-L1 [15]
  Activity: Active
[16]
  Stability: Unstable
3T3-L1 [17]
  Activity: Active
3T3-L1 [18]
  Activity: Active
